Laboratory results taken from ChEMBL document CHEMBL6115010, “Targeting glioma with heteroaromatic alkaloids: A review of potential therapeutics” (Bioorg Med Chem, 2025).
pEC50, pIC50: −log10 of the molar value. In brackets after ≈: the same amount, converted by molar mass.

Experiments:
[1] = test system: U-87 MG; test: Antiproliferative activity against human U-87 MG cells assessed as reduction in cell growth measured for 24 hrs by MTT assay; format: functional, cell-based, U-87MG ATCC
[2] = test system: U-118-MG; test: Antiproliferative activity against human U-118-MG cells assessed as inhibition of cell proliferation incubated for 72 hrs by CCK8 assay; format: functional, cell-based
[3] = test system: U-87 MG; test: Antitumor activity against human U-87 MG cells xenografted in BALB/c nude mouse assessed as reduction in tumor growth at 5 mg/kg, iv administered once daily for 16 days relative to control; format: functional, U-87MG ATCC; set-up: scale not given: the % may be the effect or the level left; settings: time 16 day
[4] = test system: U-251; test: Antiproliferative activity against human U-251MG cells assessed as reduction in cell viability incubated for 48 hrs by SRB assay; format: functional, cell-based; settings: U-251, 48 h
[5] = test system: T98G; test: Antiproliferative activity against human T98G cells assessed as reduction in cell viability incubated for 96 hrs by MTT assay; format: functional, cell-based
[6] = test system: T98G; test: Induction of apoptosis in human T98G cells at 10 ug/ml relative to control; format: functional; settings: dose 10 µg/ml
[7] = test system: SF-268; test: Antiproliferative activity against human SF-268 cells assessed as inhibition of cell growth by MTT assay; format: functional; settings: read-out: ED50 (the source's name)
[8] = test system: C6; test: Cytotoxicity against rat C6 cells assessed as reduction in cell growth measured for 48 hrs by MTT assay; format: functional, cell-based; settings: C6, 48 h
[9] = test system: U-87 MG; test: Antiproliferative activity against human U-87 MG cells assessed as reduction in cell viability incubated for 48 hrs by CCK-8 assay; format: functional, cell-based, U-87MG ATCC
[10] = test system: U-87 MG; test: Antiproliferative activity against human U-87 MG cells assessed as reduction in cell viability incubated foe 24 hrs by MTT assay; format: functional, cell-based, U-87MG ATCC
[11] = test system: U-251; test: Antiproliferative activity against human U-251MG cells assessed as reduction in cell viability at 50 uM incubated for 48 hrs by CCK-8 assay relative to control; format: functional
[12] = test system: C6; test: Antiproliferative activity against rat C6 cells assessed as reduction in cell viability incubated foe 24 hrs by MTT assay; format: functional, cell-based; settings: C6, 24 h
[13] = test system: U-87 MG; test: Antiproliferative activity against human U-87 MG cells assessed as reduction in cell viability at 50 uM incubated for 48 hrs by CCK-8 assay relative to control; format: functional, U-87MG ATCC
[14] = test system: LN-18; test: Antiproliferative activity against human LN-18 cells assessed as reduction in cell viability incubated for 48 hrs by CCK-8 assay; format: functional, cell-based; settings: LN-18, 48 h
[15] = Antiproliferative activity against human TMZ-resistant A-172 cells assessed as reduction in cell growth incubated for 48 hrs by MTT assay; format: functional, cell-based; settings: TMZ-resistant A-172 cell
[16] = test system: T98G; test: Induction of apoptosis in human T98G cells assessed as fold increase in apoptosis at 10 uM under radiation measured after 24 hrs by annexin V and PI staining based flow cytometry analysis (Rvb=3.7); format: functional
[17] = test system: HUVEC; test: Antivascular activity against HUVEC cells assessed as inhibition of capillary tube formation at 100 incubated for 6 hrs by microscopy based analysis relative to control; format: functional, Homo sapiens; set-up: scale not given: the % may be the effect or the level left
[18] = Downregulation of HIF-1alpha expression in human T98G cells at 150 uM relative to control; format: functional
[19] = Antiproliferative activity against human TMZ-sensitive LN-229 cells assessed as reduction in cell growth incubated for 48 hrs by MTT assay; format: functional, cell-based, TMZ-sensitive LN-229 cell; settings: LN-229, 48 h
[20] = test system: C6; test: Antitumor activity against rat C6 cells implanted in athymic nude mouse assessed as reduction in tumor volume at 300 mg/kg, sc administered once daily for 21 days relative to control; format: functional; set-up: scale not given: the % may be the effect or the level left; settings: time 21 day
[21] = Antiproliferative activity against human TMZ-resistant U-251MG cell assessed as reduction in cell growth incubated for 48 hrs by MTT assay; format: functional, cell-based; settings: U-251, 48 h
[22] = Antiproliferative activity against human TMZ-sensitive A-172 cells assessed as reduction in cell growth incubated for 48 hrs by MTT assay; format: functional, cell-based, TMZ-sensitive A-172 cell; settings: A 172, 48 h
[23] = test system: U-87 MG; test: Antiproliferative activity against human U-87 MG cells assessed as reduction in inhibition of cell growth incubated for 72 hrs by MTT assay; format: functional, cell-based, U-87MG ATCC
[24] = Antitumor activity against mouse GL261 cells implanted in C57BL/6 mouse model assessed as increase in tumor growth delay under radiation at 150 mg/kg via oral gavage (reference value: 12.7+/-2.8 days); format: functional
[25] = test system: T98G; test: Antiproliferative activity against human T98G cells assessed as reduction in inhibition of cell growth incubated for 72 hrs by MTT assay; format: functional, cell-based
[26] = test system: LN-229; test: Antiproliferative activity against human LN-229 cells assessed as reduction in inhibition of cell growth incubated for 72 hrs by MTT assay; format: functional, cell-based; settings: LN-229, 72 h
[27] = Antitumor activity against mouse GL261 cells implanted in C57BL/6 mouse model assessed as increase in tumor growth delay without radiation at 150 mg/kg via oral gavage (reference value: 12.7+/-2.8 days); format: functional
[28] = test system: U-118-MG; test: Antiproliferative activity against human U-118-MG cells assessed as reduction in inhibition of cell growth incubated for 72 hrs by MTT assay; format: functional, cell-based
[29] = test system: C6; test: Antiproliferative activity against rat C6 cells assessed as reduction in cell growth measured for 96 hrs by WST-1 assay; format: functional, cell-based; settings: C6, 96 h
[30] = test system: HUVEC; test: Antivascular activity against HUVEC cells assessed as inhibition of capillary tube formation at 150 incubated for 6 hrs by microscopy based analysis relative to control; format: functional, Homo sapiens; set-up: scale not given: the % may be the effect or the level left
[31] = Antitumor activity against mouse GL261 cells implanted in C57BL/6 mouse model assessed as fold reduction in cell proliferation under radiation at 150 mg/kg via oral gavage (reference value: 3.3 fold); format: functional
[32] = Antiproliferative activity against human TMZ-sensitive U-251MG cells assessed as reduction in cell growth incubated for 48 hrs by MTT assay; format: functional, cell-based, TMZ-sensitive U-251MG cell; settings: U-251, 48 h
[33] = test system: C6; test: Antitumor activity against rat C6 cells implanted in athymic nude mouse assessed as reduction in tumor volume at 300 mg/kg, IC administered once daily for 21 days relative to control; format: functional; set-up: scale not given: the % may be the effect or the level left; settings: time 21 day
[34] = test system: C6; test: Anticancer activity against rat C6 cells assessed as reduction in cell growth at 10 ug/ml incubated for 24 hrs by MTT assay relative to control; format: functional
[35] = Downregulation of HIF-1alpha expression in human U-87 MG cells at 150 uM relative to control; format: functional, U-87MG ATCC
[36] = test system: HUVEC; test: Antivascular activity against HUVEC cells assessed as inhibition of capillary tube formation at 50 incubated for 6 hrs by microscopy based analysis relative to control; format: functional, Homo sapiens; set-up: scale not given: the % may be the effect or the level left
[37] = Antiproliferative activity against human TMZ-resistant LN-229 cells assessed as reduction in cell growth incubated for 48 hrs by MTT assay; format: functional, cell-based, TMZ-resistant LN-229 cell; settings: LN-229, 48 h
[38] = test system: T98G; test: Antiproliferative activity against human T98G cells assessed as reduction in cell viability incubated for 72 hrs by WST-8 reagent based assay; format: functional
[39] = test system: U-87 MG; test: Antiproliferative activity against human U-87 MG cells assessed as reduction in cell viability incubated for 72 hrs by WST-8 reagent based assay; format: functional, U-87MG ATCC
[40] = test system: T98G; test: Anticancer activity against human T98G cells assessed as reduction in cell viability; format: functional, cell-based
[41] = test system: U-87 MG; test: Antitumor activity against human U-87 MG cells xenografted in BALB/c nude mouse model assessed as reduction in tumor volume at 40 mg/kg, ip administered twice a day for 4 days relative to control; format: functional, U-87MG ATCC; set-up: scale not given: the % may be the effect or the level left; settings: time 4 day
[42] = test system: T98G; test: Inhibition of colony formation in human T98G cells assessed as reduction in number of cell clone measured after 14 days by crystal violet staining based microscopic analysis; format: functional; settings: 336 h
[43] = Inhibition of colony formation in human U-251MG cells assessed as reduction in number of cell clone measured after 14 days by crystal violet staining based microscopic analysis; format: functional; settings: 336 h

SMILES: COc1ccc2cc1Oc1ccc(cc1)C[C@H]1c3cc(c(OC)cc3CCN1C)Oc1c(O)c(OC)cc3c1[C@H](C2)N(C)CC3 [FANGCHINOLINE]
- pIC50 [1]: 4.41
- pIC50 [2]: 4.35

SMILES: O=C1c2ccccc2-[n+]2ccc3c([nH]c4ccccc43)c21 [FASCAPLYSIN]
- Activity [3]: 54.92%

SMILES: O[C@H]1[C@H]2c3cc4c(cc3CN3CCC(=C[C@@H]1O)[C@H]23)OCO4 [LYCORINE]
- pIC50 [4]: 5.00

SMILES: COc1ccc2c(c1O)-c1c(O)c(OC)cc3c1[C@H](C2)[N+](C)(C)CC3 [MAGNOFLORINE]
- IC50 [5]: 112 µg/mL
- Activity [6]: 24.02%

SMILES: O=C1N[C@@H]2C(=C[C@H](O)[C@@H](O)[C@H]2O)c2cc3c(c(O)c21)OCO3 [NARCICLASINE]
- EC50 [7]: 0.021 µg/mL (≈ 0.0683 µM)

SMILES: COc1ccc(C[C@@H]2c3cc(Oc4cc(C[C@@H]5c6cc(OC)c(OC)cc6CCN5C)ccc4O)c(OC)cc3CCN2C)cc1 [NEFERINE]
- pIC50 [8]: 4.92

SMILES: COc1cc2c[n+](C)c3c4cc5c(cc4ccc3c2cc1OC)OCO5.[Cl-] [NITIDINE CHLORIDE]
- pIC50 [9]: 5.30
- pIC50 [10]: 5.00
- Activity [11]: ~50%
- pIC50 [12]: 5.10
- Activity [13]: ~50%
- pIC50 [14]: 5.30

SMILES: COc1ccc2c(c1OC)C(=O)O[C@@H]2[C@H]1c2c(cc3c(c2OC)OCO3)CCN1C [NOSCAPINE]
- pIC50 [15]: 4.22
- fold change (FC) [16]: 6.4
- Activity [17]: 40%
- Activity [18]: 90%
- pIC50 [19]: 4.15
- Activity [20]: 60%
- pIC50 [21]: 4.52
- pIC50 [22]: 4.70
- pIC50 [23]: 3.88
- Time [24]: 18 days
- pIC50 [25]: 4.01
- pIC50 [26]: 4.07
- Time [27]: 8 days
- pIC50 [28]: 4.04
- pIC50 [29]: 3.60
- Activity [30]: 40%
- fold change (FC) [31]: 5.6
- pIC50 [32]: 4.40
- Activity [33]: 78%
- inhibition at 10 µg/mL [34]: 49%
- Activity [35]: 60%
- Activity [36]: 30%
- pIC50 [37]: 4.12

SMILES: COc1ccc(Cc2nccc3cc(OC)c(OC)cc23)cc1OC [PAPAVERINE]
- pEC50 [38]: 4.38
- pEC50 [39]: 4.38
- pEC50 [40]: 5.51
- Activity [41]: 63%
- pEC50 [42]: 5.35
- pEC50 [43]: 4.96
